Assay in all cases: NCI anticancer screen, dose series, 48 h
For assay [1], the system named is OVCAR-4 ovarian.
In assay [2] the test system is NCI-H522 lung.
Assay [3] concerns UACC-257 melanoma.
In assay [4] the test system is NCI/ADR-RES ovarian.
In assay [5] the test system is LOX IMVI melanoma.
The subject of assay [6] is 786-0 renal.
In assay [7] the test system is SN12C renal.
Assay [8] relates to MALME-3M melanoma.
Assay [9] has as its system A498 renal.
Assay [10] deals with SNB-19 CNS.

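Briefly, cells in 96-well plates were exposed to five compound concentrations for 48 h, and endpoints were estimated by linear interpolation. The concentration for 50% growth inhibition is given as GI50. At the TGI there is no net growth.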 Bounds are passed on as bounds.

On to H-KIFKKFKTIIKKVWRIFGRF-NH2, for which the GI50 in assay [1] was 2.13 µM; in [2], 2.34 µM; in [3], 2.85 µM; in assay [4], 2.95 µM; in [5] it was 2.98 µM. Also, the TGI in assay [1] is 5.4 µM; in assay [2], above 100 µM; in [3] it was 9.58 µM; in assay [4], 9.57 µM; in assay [5], above 100 µM.
Turning to `COc1ccc(OC)c([N+](=O)[O-])c1-c1nc2sc(C)cn2c1/C=N/N=C(N)N`, the TGI in assay [1] is 47.3 µM; in assay [2] it was 46.5 µM; in assay [6], above 100 µM; in assay [7] it was 90.1 µM; in assay [3], 47 µM; in assay [4], above 100 µM. In addition, the TGI is 44.3 µM in [8], above 100 µM in assay [5] and 78 µM in assay [9].
As for `CN(C)CC(C)(C)C(=O)/C=C/c1ccccc1`, the TGI in [1] worked out at 31.6 µM; in [2] it was 23 µM; in [6], 29.9 µM; in assay [7], 33.7 µM; in assay [3] it was 27.2 µM; in assay [8], 24.1 µM. The TGI in [5] is 25.6 µM; in assay [10] it was 31.4 µM; in assay [9] it was 39.5 µM.
Take `C/C(=N/NC(=O)c1ccccc1Nc1ccccc1C(=O)N/N=C(\C)c1ccc(C)cc1)c1ccc(C)cc1`: the TGI in assay [1], in [6], in assay [7], in [3], in [4] and in [8] was above 100 µM each time. The TGI in assay [10] and in assay [9] was above 100 µM throughout.
On to `O=C(CSCC(=O)N/N=C\c1cccc(Br)c1)N/N=C\c1cccc(Br)c1`, for which the TGI in [1] was determined as 69.9 µM; in assay [2], 51.9 µM; in assay [6], 35.5 µM; in [7] it was 35.2 µM; in assay [3], 33.2 µM; in assay [4], 34.1 µM. The TGI in assay [5] was 23.5 µM; in assay [10], above 100 µM.
With `COc1ccc(-c2nc3ncccn3c2-c2ccc(S(C)(=O)=O)cc2)cc1`, the TGI in [1], in assay [6], in [7], in [3], in [4] and in [5] was above 100 µM throughout. In addition, the TGI in assay [10] is above 100 µM.
With `CC1[C@@H]2C[C@@H]3O[C@@]34[C@H]3CCC5Cc6nc7c(nc6C[C@@]5(C)C3(O)CC(=O)[C@@]24CO[C@]12OC(C)(C)CC2O)CC1CC[C@@H]2C3=C[C@H]4O[C@@]5(O[C@@](C)(CO)C[C@@H]5O)C(C)[C@@]4(O)[C@]3(C)[C@@H](O)CC2[C@]1(C)C7` (stereo not given in full), the TGI in [1] was above 3.52 µM; in [2], 0.653 µM; in [7], above 3.52 µM; in [3], above 3.52 µM; in assay [4], above 3.52 µM; in assay [8], 0.247 µM. Besides, the results for the TGI in assay [5] and in [9] were above 3.52 µM and 0.0643 µM, respectively.
As to `[O-][n+]1cc(SCc2ccccc2)ncc1SCc1ccccc1`, the TGI in assay [1], in assay [2], in [6], in [7], in [3] and in assay [4] was above 10 µM each time. The TGI in assay [8], in assay [5] and in assay [9] was above 10 µM throughout.
On to `COc1cc(OC)cc(-c2nc3ccccc3c(=O)[nH]2)c1`, for which the TGI in [1] was above 100 µM; in [6], 66.2 µM; in assay [7], above 100 µM; in assay [3], above 100 µM; in assay [4], above 100 µM; in assay [8], above 100 µM. The TGI was above 100 µM in assay [5], above 100 µM in [10] and 82.2 µM in assay [9].
Consider `COc1ccc(Nc2ccnc3cc(Cl)ccc23)cc1CN(CCCl)CCCl`, for which the GI50 in [1] is 1.74 µM; in [7], 1.24 µM; in assay [3], 1.98 µM; in [4] it was 3.84 µM; in assay [5], 0.724 µM; in assay [10] it was 1.5 µM. For the same compound, the GI50 in assay [9] is 2.12 µM. Moreover, the TGI was 5.19 µM in [1]; 6 µM in assay [7]; 5.96 µM in assay [3]; above 100 µM in assay [4]; 4.39 µM in [5]; 6.47 µM in assay [9].
For `CC1CC/C(=C\c2ccc(F)cc2)C2=C1C(c1ccc(F)cc1)NC(=S)N2` (stereo not given), the TGI in [6] was above 100 µM; in assay [7], above 100 µM; in [3], above 100 µM; in assay [4] it was above 100 µM; in assay [8], 87.3 µM; in assay [5] it was above 100 µM. For the same compound, the TGI in [10] is above 100 µM; in assay [9], 98.7 µM.
For the compound `Cc1nc2cccc(F)c2c(=O)n1-c1nnc(C2CC2)s1`, the TGI in assay [1], in [2], in assay [6], in [7], in assay [3] and in assay [4] was above 10 µM in each case. Besides, the TGI in assay [5] and in [10] was above 10 µM throughout.
In the case of `CC1CN=C(N(C(=O)Nc2ccccc2)C2CCCCC2)S1` (stereo not given), the TGI in assay [1] is 30.2 µM; in [6], 31.4 µM; in assay [7] it was 31.2 µM; in [3], 30.2 µM; in assay [4] it was 33.3 µM; in assay [8] it was 32 µM. Also, the TGI is 27.1 µM in assay [5], 81.8 µM in [10] and 34.7 µM in assay [9].
In the case of `N#CC(NNC(=O)c1c(Cl)c(Cl)c(Cl)c(Cl)c1-c1nc2ccc(C(=O)c3ccccc3)cc2[nH]1)c1cccc(Oc2ccccc2)c1` (stereo not given), the TGI was above 100 µM in [1]; 51.4 µM in assay [6]; 67.2 µM in assay [7]; above 100 µM in [3]; 57.1 µM in assay [4]; above 100 µM in [5]. The TGI in assay [10] worked out at 90 µM; in [9] it was 63.4 µM.
Turning to `O=S1(=O)OCCOS(=O)(=O)C1S(=O)(=O)c1cccc2ccccc12`, the TGI in assay [1], in [6], in assay [7], in [3], in assay [4] and in [8] was above 100 µM each time. In addition, in assay [5], the TGI is above 100 µM.
Take `COc1ccc(C(OCC2OC(n3ccc(Oc4c(F)c(F)c(F)c(F)c4F)nc3=O)CC2OP(OCCC#N)N(C(C)C)C(C)C)(c2ccccc2)c2ccc(OC)cc2)cc1` (stereo not given): the TGI in assay [2], in [6], in assay [7], in [3], in assay [4] and in [5] was above 100 µM each time. The TGI in assay [10] and in [9] was above 100 µM throughout.
On to `COC1OC(=O)C(OC)C(OC)C1OC` (stereo not given), for which the TGI in assay [1], in assay [2], in assay [6], in assay [7], in assay [3] and in assay [4] was above 100 µM each time. Besides, the TGI in [5], in assay [10] and in assay [9] was above 100 µM in each case.
For `C(=N\Nc1nnc(-c2nnc(N/N=C/c3ccccc3)o2)o1)/c1ccccc1`, the TGI in [1], in [6], in [7], in assay [3], in assay [4] and in [8] was above 10 µM throughout. Moreover, the TGI in [10] and in assay [9] was above 10 µM throughout.
For the compound `C=C1CC2C[C@H](OS(=O)(=O)c3ccc(C)cc3)C(C1)N2C` (stereo not given in full), the TGI in assay [1], in assay [2], in assay [6], in assay [7], in assay [3] and in assay [4] was above 100 µM in each case. The TGI in [8], in assay [5] and in assay [10] was above 100 µM each time.
As to `O=C(c1cccs1)N(C(=O)N1CCCCC1)c1ccccc1`, the TGI in assay [6], in assay [7], in assay [3], in assay [4], in assay [8] and in assay [5] was above 100 µM throughout. Further, the TGI in assay [10] and in [9] was above 100 µM in each case.
For `N#Cc1nc(-c2ccccn2)c(-c2ccccn2)nc1C#N`, the TGI in assay [1] is 12.3 µM; in assay [2] it was 16.6 µM; in [6], 6.28 µM; in assay [7] it was above 100 µM; in assay [3] it was 14.7 µM; in [4], 8.5 µM. Further, the TGI in assay [5] was above 27.5 µM; in assay [10], 22 µM; in [9] it was 8.19 µM.
Consider `O=C1CSC2=NC3=C(COC/C3=C\c3ccc(F)cc3)C(c3ccc(F)cc3)N12` (stereo not given), for which the TGI in [1], in assay [2], in assay [6], in [7], in assay [3] and in assay [4] was above 100 µM in each case. The TGI in assay [5], in assay [10] and in assay [9] was above 100 µM throughout.

(Values after PubChem BioAssay (NCI).)
